Experimental findings from ChEMBL document CHEMBL1201862, “PubChem BioAssay data set” (2004) are described below.

Activity calls are given as the source filed them.

The nature of assay [1]: inhibitors of non-replicating M. tuberculosis, dose response, luciferase, dry powder (AID 651619). It is filed as functional. The conditions noted are these: Mycobacterium tuberculosis.
The nature of assay [2]: inhibitors of non-replicating M. tuberculosis, dose response, luciferase, dry powder (AID 651620). It is filed as functional. The conditions noted are these: Mycobacterium tuberculosis.
Assay [3] in a line: Luminescence Cell-Based Dose Response HTS to Identify Activators of Luciferase Translation or Activity in H4 […] Cells. [Related pubchem assays: 1829 (Project Summary), 1814 (Primary HTS)]. It is filed as functional.
The next assay has as its system H4. Briefly: Luminescence Cell-Based Dose Response HTS to Identify Activators of 5'UTR Stem-Loop Driven Prion Protein mRNA Translation in H4 Neuroglioblastoma Cells. [Related pubchem assays: 1829 (Project Summary), 1814 (Primary HTS)]. It is filed as functional. The settings on record: Homo sapiens.
Assay [4] addresses T1, Ubiquitin-conjugating enzyme E2 N (Homo sapiens, UniProt P61088).
T1 sequence (P61088 whole entry): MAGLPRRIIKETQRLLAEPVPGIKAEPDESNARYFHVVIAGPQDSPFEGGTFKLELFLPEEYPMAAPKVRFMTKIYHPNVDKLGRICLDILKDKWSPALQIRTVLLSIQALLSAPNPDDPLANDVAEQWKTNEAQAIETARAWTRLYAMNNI
It is filed as functional.

Assay [5] has as its target FAD-linked sulfhydryl oxidase ALR (Homo sapiens, UniProt P55789). Nature of the assay: inhibitors of human ALR sulfhydryl oxidase, dose response, biochemical, H2O2 detection, luminescence, cherry-pick (AID 493248).
Assay [6] can be described thus: MDA-MB-231 cell growth inhibition, dose response, cytotoxicity control for RAD54 inhibitor project, CellTiter-Glo luminescence, cherry-pick (AID 651692). It is filed as functional, cell-based. On the technique in general: In ATP-based viability assays light output follows the ATP content of the culture.
The target in assay [7] is T2, DNA repair and recombination protein RAD54-like (Homo sapiens, UniProt Q92698).
T2 sequence (Q92698 whole entry): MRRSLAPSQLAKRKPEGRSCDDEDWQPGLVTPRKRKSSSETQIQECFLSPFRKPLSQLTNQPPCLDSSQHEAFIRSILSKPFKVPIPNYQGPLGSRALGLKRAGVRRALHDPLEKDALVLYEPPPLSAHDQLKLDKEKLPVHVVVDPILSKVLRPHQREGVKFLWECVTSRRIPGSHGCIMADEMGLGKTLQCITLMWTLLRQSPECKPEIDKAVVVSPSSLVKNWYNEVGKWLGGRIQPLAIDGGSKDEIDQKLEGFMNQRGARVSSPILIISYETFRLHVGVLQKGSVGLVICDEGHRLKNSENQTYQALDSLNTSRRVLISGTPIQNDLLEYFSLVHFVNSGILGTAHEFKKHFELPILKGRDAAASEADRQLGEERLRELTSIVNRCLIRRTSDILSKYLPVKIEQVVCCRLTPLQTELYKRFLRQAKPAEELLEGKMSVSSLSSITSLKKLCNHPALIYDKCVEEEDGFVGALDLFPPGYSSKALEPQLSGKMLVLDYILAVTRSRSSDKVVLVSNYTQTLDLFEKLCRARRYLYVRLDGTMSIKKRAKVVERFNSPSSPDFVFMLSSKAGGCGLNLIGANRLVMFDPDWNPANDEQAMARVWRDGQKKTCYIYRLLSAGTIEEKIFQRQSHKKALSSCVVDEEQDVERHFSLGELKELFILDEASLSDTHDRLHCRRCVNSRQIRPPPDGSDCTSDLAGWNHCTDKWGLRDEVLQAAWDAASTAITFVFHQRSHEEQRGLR
Briefly: inhibitors of human RAD54 branch migration, confirmation, biochemical, fluorescence, cherry-picked samples, dose series (AID 651657). It is filed as functional.

The nature of assay [8]: HepG2 cell cytotoxicity, dose response, cytotoxicity control, ATP luminescence, cherry-pick, set 6 (AID 1053125). It is filed as functional, cell-based.
A short description of assay [9]: cells. The settings on record: A549.
Assay [10] is described as follows: cells.
Assay [11] is described as follows: cells. The conditions noted are these: HEK293.
Assay [12] has as its target T3, NAD-dependent protein deacylase sirtuin-5, mitochondrial (Homo sapiens, UniProt Q9NXA8). Briefly: SIRT5 deacylase inhibitors, dose response, biochemical, fluorescence imaging, cherry-pick, set 6 (AID 720597).
In assay [13] the test system is Streptococcus sp. 'group A'. Briefly: growth inhibition of control SK(-) GAS strain, dose response, counter-screen for streptokinase expression inhibitor project, luminescence, kanamycin, BacTiterGlo, confirmation (AID 1900). It is filed as functional, organism-based. A general note: Counterscreens check selectivity or assay interference.
In the next assay the target is T4, Streptokinase A (Streptococcus pyogenes serotype M1, UniProt P10520).
T4 sequence (P10520 whole entry): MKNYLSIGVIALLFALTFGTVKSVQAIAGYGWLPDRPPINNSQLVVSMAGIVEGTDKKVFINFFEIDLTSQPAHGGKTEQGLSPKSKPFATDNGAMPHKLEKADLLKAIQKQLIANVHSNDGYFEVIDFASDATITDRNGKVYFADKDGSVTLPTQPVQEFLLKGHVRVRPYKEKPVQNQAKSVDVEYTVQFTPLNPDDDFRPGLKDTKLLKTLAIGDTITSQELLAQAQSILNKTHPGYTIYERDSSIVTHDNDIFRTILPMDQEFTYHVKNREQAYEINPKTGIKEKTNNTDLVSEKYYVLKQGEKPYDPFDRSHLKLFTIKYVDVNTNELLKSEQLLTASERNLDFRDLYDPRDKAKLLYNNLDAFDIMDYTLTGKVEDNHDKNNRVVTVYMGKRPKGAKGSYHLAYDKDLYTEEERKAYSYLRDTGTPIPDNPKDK
Briefly: S. pyogenes streptokinase expression inhibitors, potency, dose response, plasminogen activation absorbance, OD405 (AID 1914).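 Also: secreted streptokinase activity via plasminogen activation per viability signal from cell pellet.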 It is filed as functional, Streptococcus pyogenes M1 GAS.

For another assay, the system named is Streptococcus. Nature of the assay: Group A Streptococcus viability loss, dose response, counter-screen for streptokinase expression inhibitor project, luminescence, BacTiterGlo (AID 1915).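 Also: potency for reduction of bacterial viability or growth.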 It is filed as functional, organism-based.
Assay [14] can be described thus: Intein inhibitors as potential Tuberculosis drugs, a cytotoxicity screen. [Related pubchem assays (depositor defined):AID2221, AID2223, AID434968, AID435010, AID449749, AID449750, AID489010]. It is filed as functional.
The target of assay [15] is T5, Replicative DNA helicase DnaB (Mycobacterium tuberculosis, UniProt P9WMR3).
T5 sequence (P9WMR3 whole entry): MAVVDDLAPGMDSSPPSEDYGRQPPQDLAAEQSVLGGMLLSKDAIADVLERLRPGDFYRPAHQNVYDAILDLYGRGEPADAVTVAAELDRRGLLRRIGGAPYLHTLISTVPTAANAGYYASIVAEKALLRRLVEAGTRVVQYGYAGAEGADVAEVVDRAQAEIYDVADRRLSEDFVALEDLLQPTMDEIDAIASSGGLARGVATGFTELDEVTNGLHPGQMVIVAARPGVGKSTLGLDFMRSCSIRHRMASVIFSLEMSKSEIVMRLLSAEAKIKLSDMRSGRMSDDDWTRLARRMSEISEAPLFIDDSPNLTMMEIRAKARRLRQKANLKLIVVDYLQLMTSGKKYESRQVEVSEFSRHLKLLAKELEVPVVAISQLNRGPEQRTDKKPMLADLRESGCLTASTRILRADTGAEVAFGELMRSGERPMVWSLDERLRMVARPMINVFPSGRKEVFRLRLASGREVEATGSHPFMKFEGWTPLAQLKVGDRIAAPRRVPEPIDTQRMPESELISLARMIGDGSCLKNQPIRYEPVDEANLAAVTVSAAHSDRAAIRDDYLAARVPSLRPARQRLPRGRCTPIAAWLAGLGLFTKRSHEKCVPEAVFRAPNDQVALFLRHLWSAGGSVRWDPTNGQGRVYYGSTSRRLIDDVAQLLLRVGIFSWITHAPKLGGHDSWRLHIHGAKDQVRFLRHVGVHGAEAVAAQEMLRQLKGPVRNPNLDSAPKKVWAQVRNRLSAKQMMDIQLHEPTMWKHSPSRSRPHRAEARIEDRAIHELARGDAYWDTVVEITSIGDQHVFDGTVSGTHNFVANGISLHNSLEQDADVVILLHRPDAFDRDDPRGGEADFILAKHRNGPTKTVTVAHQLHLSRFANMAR
Briefly: DnaB intein splicing inhibitors, dose response, biochemical, cell-free fluorescence (AID 449749). It is filed as functional.

The target of a further assay is T6, Protein RecA (Mycobacterium tuberculosis, UniProt P9WHJ3).
T6 sequence (P9WHJ3 whole entry): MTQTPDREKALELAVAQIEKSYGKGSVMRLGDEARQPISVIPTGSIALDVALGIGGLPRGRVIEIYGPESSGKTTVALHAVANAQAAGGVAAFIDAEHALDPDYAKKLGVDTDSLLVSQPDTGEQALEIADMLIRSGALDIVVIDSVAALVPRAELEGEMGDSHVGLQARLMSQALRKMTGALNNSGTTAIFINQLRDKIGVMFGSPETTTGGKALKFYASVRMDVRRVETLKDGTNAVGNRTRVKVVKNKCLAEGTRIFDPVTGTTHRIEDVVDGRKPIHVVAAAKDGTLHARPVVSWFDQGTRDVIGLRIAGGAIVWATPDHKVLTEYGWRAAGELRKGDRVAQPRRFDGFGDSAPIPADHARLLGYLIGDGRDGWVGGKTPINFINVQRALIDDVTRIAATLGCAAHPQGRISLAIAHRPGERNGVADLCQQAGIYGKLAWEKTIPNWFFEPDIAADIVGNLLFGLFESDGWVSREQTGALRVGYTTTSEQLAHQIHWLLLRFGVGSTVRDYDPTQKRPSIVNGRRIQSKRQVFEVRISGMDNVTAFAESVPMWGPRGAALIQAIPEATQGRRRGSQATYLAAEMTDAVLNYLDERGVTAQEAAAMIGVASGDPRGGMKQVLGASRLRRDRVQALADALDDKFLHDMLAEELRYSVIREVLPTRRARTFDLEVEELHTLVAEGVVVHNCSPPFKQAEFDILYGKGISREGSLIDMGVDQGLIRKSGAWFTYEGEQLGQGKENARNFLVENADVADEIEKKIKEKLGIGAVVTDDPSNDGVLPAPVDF
Nature of the assay: Fluorescence Cell-Free Homogeneous Dose Retest to Identify Inhibitors of RecA-Intein Splicing Activity. [Related pubchem assays (depositor defined):AID2097, AID2223, AID489010, AID492950]. It is filed as functional.

A further assay deals with INS1. Nature of the assay: beta cell apoptosis inhibitors, cytokine rescue, dose response, luminescence, retest (AID 449756).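 Also: cell death triggered by IL-1 beta plus TNF-alpha plus IFN-gamma mixture; protective hits raise ATP signal compared with cytokine alone wells.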 It is filed as functional, cell-based. The settings on record: Rattus norvegicus.
The target of the next assay is T7, Caspase-6 (Homo sapiens, UniProt P55212).
T7 sequence (P55212 whole entry): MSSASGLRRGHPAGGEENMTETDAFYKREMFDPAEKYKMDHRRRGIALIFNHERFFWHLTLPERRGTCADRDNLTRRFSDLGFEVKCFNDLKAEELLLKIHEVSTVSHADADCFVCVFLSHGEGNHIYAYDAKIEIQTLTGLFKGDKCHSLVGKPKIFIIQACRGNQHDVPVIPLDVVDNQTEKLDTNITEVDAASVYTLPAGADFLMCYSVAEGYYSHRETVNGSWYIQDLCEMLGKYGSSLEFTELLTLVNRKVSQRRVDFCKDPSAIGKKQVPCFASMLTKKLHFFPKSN
Nature of the assay: human caspase-6 inhibitors, dose response, biochemical, VEID-R110 fluorescence, cherry-pick (AID 720632).

In assay [16] the target is E3 ubiquitin-protein ligase UHRF1 (Homo sapiens, UniProt Q96T88). Briefly: Counterscreen for inhibitors of 5-meCpG-binding domain protein 2 (MBD2): TRFRET-based biochemical high throughput dose response assay to identify inhibitors of binding of ubiquitin-like with PHD and ring finger domains 1 (UHRF1) to methylated oligonucleotide.
E3 ubiquitin-protein ligase UHRF1, sequence (Q96T88 whole entry, the tested form may be a part): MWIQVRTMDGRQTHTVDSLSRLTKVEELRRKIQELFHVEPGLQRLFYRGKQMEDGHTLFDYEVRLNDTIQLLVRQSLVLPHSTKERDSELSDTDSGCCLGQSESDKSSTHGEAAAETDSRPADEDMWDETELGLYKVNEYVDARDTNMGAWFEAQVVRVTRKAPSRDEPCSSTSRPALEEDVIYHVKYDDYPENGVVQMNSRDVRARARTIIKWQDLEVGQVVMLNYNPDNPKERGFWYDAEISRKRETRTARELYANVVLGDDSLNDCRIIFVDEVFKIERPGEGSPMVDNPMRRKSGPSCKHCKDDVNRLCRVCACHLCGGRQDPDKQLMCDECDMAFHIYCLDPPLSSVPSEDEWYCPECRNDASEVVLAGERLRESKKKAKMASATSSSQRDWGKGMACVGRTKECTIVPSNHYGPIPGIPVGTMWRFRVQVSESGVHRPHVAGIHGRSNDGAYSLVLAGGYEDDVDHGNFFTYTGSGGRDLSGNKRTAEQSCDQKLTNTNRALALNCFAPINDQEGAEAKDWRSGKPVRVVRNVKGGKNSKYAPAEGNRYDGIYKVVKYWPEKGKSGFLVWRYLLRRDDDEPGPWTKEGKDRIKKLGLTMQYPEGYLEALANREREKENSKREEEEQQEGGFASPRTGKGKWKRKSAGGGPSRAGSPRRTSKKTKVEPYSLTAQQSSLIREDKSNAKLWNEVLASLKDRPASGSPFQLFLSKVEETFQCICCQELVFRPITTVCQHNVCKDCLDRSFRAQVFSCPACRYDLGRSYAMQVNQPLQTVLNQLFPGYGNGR
Assay [17] addresses T3, NAD-dependent protein deacylase sirtuin-5, mitochondrial. Nature of the assay: SIRT5 desuccinylase inhibitors, dose response, biochemical, fluorescence imaging, cherry-pick, set 5 (AID 720591).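 Also: desuccinylation of succinyl peptide AMC substrate read as fluorescence after trypsin release; potency of inhibitors that lower fluorescence and may act on trypsin instead.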

As usually defined, the IC90 is the point of the concentration-response curve where the effect stands at 90%. In general, EC50 refers to the midpoint of the concentration-response curve. Broadly, the IC50 is the concentration that gives 50% inhibition. In general, AC50 refers to the concentration giving half of the maximal activity seen. Broadly, the CC50 is the concentration that lowers cell viability or growth by half.
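For CC50 in this document: cells exposed to compound for 72 hours before luminescence readout.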

T3 sequence (Q9NXA8 whole entry): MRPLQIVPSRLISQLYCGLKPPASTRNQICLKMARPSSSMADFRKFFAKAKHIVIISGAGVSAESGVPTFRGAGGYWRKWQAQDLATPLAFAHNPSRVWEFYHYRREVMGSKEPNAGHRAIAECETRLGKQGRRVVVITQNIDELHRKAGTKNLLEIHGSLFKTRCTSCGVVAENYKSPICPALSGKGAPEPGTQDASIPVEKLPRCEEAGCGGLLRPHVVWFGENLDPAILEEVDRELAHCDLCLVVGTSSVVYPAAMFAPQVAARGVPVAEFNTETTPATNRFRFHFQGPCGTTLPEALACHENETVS
FAD-linked sulfhydryl oxidase ALR, sequence (P55789 whole entry): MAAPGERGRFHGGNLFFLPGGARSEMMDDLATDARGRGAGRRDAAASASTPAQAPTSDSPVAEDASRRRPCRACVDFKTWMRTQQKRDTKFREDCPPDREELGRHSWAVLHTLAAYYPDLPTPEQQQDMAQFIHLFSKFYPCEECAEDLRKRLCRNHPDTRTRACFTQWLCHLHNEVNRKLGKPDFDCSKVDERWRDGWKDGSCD

In the case of `[N-]=[N+]=NCCOCCNC(=O)CCCOc1ccc(-c2nnc(SCc3ccccn3)o2)cc1`, the IC90 in assay [1] and in assay [2] was 31 µM (active) in each case.
Consider `Cc1cc2oc3cc(NCCC4CCCN4C)ccc3c(=O)c2cc1C` (stereo not drawn), for which the figures for the half-maximal effective concentration (EC50) (in [3]; with H4) were 0.113 µM (active) and 45.4 µM (active), respectively. In addition, in assay [4], the IC50 is > 20 µM (inactive). The AC50 in assay [5] was 0.287 µM (active); in [6] it was 22.6 µM (active); in assay [7], 13.3 µM (active); in assay [8], 11.2 µM (active); in “cells [9]”, 9.92 µM (active); in “cells [10]”, 35 µM (active). Also, the AC50 in “cells [11]” was 12.4 µM (active).
Take `COCC(=O)NC[C@@H]1N[C@@H](CO)[C@H]1c1ccc(C2=CCCCC2)cc1`: the AC50 in [12] was > 30 µM (inactive).
On to `CCN(CC)CCNC(=O)c1ccc2c(c1NCCO)C(=O)c1ccccc1C2=O`, for which the EC50 is 12.9 µM (active) in assay [13], > 150 µM (not active) at Streptokinase A, > 150 µM (not active) in the assay with Streptococcus and 0.524 µM (active) on Protein RecA. Further, the CC50 in assay [14] is 26.2 µM (active). Further, the AC50 in [15] was 4.5 µM (active); in the assay on INS1, 4.09 µM (active); at Caspase-6, 5.96 µM (active). The IC50 in [16] is > 43.8 µM (inactive).
Take `COc1ccc(C(C(=O)NC(C)(C)C)N(Cc2ccco2)C(=O)CCC(=O)Nc2cc(C)on2)cc1` (stereo not drawn): the concentration at half-maximal activity (AC50) in assay [17] was 23.5 µM (active).
